Measured values: ChEMBL document CHEMBL5291721, “A preclinical secondary pharmacology resource illuminates target-adverse drug reaction associations of marketed drugs” (Nat Commun, 2023)

How the values were obtained:
Acetylcholinesterase = Acetylcholinesterase (Homo sapiens, UniProt P22303); type: functional
[1] = molecular target: T1, Alpha-1A adrenergic receptor (Homo sapiens, UniProt P35348); type: functional, cell-based
T1 sequence (P35348 whole entry): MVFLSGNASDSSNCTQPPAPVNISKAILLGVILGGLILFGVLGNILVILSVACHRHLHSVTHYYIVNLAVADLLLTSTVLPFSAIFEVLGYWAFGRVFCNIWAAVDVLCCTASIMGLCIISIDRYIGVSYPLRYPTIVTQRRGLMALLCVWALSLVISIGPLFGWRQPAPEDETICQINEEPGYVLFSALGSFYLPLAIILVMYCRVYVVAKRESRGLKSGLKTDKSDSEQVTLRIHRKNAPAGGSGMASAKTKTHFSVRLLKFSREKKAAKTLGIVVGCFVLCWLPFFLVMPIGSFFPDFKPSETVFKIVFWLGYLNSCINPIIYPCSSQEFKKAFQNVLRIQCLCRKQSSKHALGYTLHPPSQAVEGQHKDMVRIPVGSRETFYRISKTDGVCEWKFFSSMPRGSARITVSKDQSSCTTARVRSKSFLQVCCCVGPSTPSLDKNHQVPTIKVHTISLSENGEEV

[2] = molecular target: T2, Muscarinic acetylcholine receptor M1 (Homo sapiens, UniProt P11229); type: functional, cell-based
T2 sequence (P11229 whole entry): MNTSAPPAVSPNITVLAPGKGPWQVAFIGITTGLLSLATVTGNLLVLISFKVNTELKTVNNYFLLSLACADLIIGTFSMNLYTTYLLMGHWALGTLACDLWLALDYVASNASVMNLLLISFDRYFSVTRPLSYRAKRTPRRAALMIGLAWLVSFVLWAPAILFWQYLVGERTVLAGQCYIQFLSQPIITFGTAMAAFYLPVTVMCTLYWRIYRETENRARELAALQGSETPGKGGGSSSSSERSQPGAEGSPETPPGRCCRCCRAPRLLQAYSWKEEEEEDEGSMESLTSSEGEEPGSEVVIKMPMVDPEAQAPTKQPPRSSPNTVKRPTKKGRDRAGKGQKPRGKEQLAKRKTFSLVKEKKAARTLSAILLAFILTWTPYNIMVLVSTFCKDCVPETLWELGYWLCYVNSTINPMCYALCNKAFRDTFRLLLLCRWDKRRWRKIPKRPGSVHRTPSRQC

[3] = molecular target: T3, Muscarinic acetylcholine receptor M2 (Homo sapiens, UniProt P08172)
T3 sequence (P08172 whole entry): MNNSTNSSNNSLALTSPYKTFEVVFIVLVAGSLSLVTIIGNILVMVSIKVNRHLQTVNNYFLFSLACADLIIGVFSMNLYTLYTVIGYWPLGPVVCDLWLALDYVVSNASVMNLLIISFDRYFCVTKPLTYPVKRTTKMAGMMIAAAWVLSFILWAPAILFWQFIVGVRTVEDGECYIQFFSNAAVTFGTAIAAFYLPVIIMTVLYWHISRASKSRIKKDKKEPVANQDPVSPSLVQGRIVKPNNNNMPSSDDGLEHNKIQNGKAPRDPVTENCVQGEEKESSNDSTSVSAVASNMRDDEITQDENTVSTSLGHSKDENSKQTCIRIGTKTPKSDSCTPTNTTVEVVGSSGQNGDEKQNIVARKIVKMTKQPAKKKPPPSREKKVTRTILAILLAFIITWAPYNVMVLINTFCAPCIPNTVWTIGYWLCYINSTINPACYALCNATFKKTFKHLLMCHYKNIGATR

D(1A) dopamine receptor = D(1A) dopamine receptor (Homo sapiens, UniProt P21728)
Chain of D(1A) dopamine receptor (P21728 whole entry): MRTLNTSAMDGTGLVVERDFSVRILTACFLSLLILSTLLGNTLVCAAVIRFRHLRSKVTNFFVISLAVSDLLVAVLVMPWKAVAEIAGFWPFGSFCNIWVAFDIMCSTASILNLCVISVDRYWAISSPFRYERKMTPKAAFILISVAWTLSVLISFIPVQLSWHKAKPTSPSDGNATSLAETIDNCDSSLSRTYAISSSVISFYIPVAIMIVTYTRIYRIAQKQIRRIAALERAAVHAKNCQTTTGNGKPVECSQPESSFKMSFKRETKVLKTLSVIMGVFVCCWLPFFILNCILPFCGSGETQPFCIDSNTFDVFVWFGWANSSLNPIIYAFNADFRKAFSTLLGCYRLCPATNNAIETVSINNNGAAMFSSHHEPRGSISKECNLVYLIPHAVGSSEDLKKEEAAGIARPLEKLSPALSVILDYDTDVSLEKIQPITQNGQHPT

D(3) dopamine receptor = D(3) dopamine receptor (Homo sapiens, UniProt P35462)
Chain of D(3) dopamine receptor (P35462 whole entry): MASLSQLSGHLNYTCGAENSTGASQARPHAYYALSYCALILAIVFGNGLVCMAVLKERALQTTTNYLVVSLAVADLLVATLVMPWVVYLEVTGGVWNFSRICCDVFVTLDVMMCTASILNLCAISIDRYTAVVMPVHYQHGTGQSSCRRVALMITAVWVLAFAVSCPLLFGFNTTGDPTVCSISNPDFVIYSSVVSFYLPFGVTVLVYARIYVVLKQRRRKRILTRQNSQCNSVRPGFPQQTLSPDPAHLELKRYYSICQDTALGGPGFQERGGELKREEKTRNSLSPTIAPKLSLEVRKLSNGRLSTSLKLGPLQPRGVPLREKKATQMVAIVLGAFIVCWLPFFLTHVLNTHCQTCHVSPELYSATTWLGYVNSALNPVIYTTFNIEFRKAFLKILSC

Estrogen receptor = molecular target: T4, Estrogen receptor (Homo sapiens, UniProt P03372)
T4 sequence (P03372 whole entry): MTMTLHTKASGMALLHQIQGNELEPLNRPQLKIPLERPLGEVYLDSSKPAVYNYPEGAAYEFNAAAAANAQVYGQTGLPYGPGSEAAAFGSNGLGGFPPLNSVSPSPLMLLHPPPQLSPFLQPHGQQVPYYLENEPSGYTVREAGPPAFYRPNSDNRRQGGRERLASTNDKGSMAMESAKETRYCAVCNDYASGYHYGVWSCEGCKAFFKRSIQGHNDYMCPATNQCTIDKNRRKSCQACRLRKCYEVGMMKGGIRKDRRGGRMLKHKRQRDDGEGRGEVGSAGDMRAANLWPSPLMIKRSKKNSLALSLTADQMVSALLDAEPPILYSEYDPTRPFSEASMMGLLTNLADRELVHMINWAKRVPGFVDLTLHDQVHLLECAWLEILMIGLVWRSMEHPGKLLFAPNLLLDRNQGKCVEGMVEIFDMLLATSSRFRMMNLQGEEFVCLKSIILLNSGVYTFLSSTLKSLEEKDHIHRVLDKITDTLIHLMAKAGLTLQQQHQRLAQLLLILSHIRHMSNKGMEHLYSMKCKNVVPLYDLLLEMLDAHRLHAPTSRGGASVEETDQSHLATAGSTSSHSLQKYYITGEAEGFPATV

[4] = molecular target: 5-hydroxytryptamine receptor 2B (Homo sapiens, UniProt P41595); type: functional, cell-based
Chain of 5-hydroxytryptamine receptor 2B (P41595 whole entry): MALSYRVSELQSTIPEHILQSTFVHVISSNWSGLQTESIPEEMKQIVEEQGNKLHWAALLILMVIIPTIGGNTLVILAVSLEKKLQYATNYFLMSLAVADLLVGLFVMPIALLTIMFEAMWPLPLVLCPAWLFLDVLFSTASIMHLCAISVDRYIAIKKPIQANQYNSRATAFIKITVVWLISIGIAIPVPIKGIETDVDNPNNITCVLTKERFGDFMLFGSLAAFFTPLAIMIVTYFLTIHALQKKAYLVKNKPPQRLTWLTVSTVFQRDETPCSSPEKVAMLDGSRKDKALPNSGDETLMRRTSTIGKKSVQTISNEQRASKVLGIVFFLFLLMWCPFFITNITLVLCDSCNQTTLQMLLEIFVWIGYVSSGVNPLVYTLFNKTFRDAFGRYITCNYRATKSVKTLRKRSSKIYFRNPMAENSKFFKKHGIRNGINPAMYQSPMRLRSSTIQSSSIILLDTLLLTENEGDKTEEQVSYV

[5] = molecular target: Voltage-gated inwardly rectifying potassium channel KCNH2 (Homo sapiens, UniProt Q12809); type: functional; conditions: read-out: AC50
Chain of Voltage-gated inwardly rectifying potassium channel KCNH2 (Q12809 whole entry): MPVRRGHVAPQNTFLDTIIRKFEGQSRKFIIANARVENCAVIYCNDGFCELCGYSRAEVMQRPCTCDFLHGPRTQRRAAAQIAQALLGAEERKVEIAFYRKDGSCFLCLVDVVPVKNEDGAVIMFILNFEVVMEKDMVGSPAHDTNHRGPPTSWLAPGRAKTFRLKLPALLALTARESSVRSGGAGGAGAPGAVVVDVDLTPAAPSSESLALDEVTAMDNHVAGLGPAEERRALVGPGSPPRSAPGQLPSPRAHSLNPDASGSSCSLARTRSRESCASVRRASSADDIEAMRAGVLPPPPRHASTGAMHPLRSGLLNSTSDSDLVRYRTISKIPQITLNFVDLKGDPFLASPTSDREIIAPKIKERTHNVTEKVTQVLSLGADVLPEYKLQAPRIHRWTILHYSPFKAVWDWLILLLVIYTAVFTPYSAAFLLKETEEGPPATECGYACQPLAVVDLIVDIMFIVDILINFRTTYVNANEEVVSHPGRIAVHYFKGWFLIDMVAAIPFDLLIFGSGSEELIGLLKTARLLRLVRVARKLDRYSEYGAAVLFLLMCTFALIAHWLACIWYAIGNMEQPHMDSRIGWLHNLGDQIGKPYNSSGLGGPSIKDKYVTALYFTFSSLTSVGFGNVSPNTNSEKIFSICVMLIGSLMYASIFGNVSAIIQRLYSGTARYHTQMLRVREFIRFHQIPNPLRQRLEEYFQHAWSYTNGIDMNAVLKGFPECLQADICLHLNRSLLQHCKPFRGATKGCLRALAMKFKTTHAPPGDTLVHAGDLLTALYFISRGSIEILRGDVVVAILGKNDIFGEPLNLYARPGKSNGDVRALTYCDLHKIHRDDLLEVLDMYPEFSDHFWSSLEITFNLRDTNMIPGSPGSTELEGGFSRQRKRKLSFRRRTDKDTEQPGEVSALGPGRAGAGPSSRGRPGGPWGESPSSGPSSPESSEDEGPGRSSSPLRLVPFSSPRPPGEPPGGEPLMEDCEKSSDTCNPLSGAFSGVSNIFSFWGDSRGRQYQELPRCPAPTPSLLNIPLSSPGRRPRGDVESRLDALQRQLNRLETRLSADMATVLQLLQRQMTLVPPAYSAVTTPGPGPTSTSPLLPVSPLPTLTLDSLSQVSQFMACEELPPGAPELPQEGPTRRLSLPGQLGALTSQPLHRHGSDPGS

[6] = molecular target: Vascular endothelial growth factor receptor 2 (Homo sapiens, UniProt P35968); type: functional
Chain of Vascular endothelial growth factor receptor 2 (P35968 whole entry): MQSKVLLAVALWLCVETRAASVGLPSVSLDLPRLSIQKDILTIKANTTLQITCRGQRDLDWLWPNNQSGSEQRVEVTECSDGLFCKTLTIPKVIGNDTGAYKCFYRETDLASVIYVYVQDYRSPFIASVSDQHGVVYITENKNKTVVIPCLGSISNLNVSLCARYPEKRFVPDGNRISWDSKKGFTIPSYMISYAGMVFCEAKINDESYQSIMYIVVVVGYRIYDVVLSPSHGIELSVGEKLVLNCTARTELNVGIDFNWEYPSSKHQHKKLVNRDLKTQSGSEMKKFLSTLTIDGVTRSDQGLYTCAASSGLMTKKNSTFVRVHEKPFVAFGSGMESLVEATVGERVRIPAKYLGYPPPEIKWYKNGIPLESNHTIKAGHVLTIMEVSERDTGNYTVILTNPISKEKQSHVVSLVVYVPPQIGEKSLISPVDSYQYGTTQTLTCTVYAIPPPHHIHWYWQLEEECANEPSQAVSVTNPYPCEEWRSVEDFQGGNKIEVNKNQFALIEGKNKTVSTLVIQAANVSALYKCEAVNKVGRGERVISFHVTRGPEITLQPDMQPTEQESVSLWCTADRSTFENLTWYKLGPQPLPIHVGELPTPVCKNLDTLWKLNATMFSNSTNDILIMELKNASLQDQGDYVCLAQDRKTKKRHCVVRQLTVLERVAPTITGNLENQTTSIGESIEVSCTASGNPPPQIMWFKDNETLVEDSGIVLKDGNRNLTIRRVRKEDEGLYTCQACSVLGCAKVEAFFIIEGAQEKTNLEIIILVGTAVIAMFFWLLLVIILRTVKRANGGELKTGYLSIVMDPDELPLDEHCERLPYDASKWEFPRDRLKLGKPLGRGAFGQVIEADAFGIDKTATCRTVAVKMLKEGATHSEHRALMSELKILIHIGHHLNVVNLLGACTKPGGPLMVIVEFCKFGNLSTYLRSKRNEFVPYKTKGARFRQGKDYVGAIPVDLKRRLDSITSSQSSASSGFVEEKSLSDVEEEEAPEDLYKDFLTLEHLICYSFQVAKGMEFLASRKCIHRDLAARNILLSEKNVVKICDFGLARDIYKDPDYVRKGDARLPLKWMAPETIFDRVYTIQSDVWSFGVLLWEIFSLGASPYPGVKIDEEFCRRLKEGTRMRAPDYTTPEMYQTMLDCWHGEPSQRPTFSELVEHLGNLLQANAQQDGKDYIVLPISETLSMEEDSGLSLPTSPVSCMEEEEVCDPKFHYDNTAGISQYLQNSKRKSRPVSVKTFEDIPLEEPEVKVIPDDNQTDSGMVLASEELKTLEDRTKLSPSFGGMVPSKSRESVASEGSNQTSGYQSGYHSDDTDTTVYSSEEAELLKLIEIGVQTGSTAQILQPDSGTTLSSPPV

Mu-type opioid receptor = Mu-type opioid receptor (Homo sapiens, UniProt P35372)
Chain of Mu-type opioid receptor (P35372 whole entry): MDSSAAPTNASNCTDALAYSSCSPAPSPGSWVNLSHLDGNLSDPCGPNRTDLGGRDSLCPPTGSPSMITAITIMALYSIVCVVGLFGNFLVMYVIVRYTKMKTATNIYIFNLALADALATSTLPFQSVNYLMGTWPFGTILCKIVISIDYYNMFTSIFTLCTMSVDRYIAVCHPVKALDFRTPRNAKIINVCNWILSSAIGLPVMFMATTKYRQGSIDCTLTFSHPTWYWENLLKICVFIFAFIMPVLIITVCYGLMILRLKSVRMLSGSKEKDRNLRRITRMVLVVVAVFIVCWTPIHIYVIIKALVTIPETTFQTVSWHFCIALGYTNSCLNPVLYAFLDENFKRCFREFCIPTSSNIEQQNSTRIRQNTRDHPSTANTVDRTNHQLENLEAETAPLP

Thromboxane A2 receptor = molecular target: T5, Thromboxane A2 receptor (Homo sapiens, UniProt P21731); type: functional, cell-based
T5 sequence (P21731 whole entry): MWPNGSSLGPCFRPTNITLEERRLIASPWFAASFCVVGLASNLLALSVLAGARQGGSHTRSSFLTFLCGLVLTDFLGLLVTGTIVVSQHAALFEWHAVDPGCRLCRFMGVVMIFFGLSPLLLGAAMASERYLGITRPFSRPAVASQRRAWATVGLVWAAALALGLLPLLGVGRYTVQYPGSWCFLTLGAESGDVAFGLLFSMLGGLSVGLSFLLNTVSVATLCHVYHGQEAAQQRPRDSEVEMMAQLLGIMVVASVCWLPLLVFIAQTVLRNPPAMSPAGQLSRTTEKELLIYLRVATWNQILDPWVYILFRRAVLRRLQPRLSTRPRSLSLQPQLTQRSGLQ

Measured: AC50
Also: assay procedure not described here.

Chain of Acetylcholinesterase (P22303 whole entry): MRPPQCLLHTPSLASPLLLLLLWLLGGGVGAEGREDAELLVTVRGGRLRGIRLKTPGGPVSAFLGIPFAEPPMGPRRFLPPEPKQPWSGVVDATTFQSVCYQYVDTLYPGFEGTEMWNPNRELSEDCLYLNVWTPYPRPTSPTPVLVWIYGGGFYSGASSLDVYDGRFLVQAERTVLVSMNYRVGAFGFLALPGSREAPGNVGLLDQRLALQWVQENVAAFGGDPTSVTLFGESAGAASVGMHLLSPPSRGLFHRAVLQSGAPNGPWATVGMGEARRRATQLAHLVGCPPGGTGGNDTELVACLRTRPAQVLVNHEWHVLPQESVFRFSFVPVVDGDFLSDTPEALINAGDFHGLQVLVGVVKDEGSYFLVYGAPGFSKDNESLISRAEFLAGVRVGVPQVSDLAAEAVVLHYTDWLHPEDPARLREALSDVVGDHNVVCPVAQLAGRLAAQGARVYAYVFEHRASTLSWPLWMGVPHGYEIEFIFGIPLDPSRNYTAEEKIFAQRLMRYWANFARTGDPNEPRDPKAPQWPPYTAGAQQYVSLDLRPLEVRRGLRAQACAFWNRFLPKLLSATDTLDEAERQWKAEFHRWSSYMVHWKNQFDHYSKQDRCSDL

C[N+]1(CCCCC[N+]2(C)CCCC2)CCCC1 [PENTOLINIUM]
> 30 µM: all assays above

Cc1cc(NS(=O)(=O)c2ccc(N)cc2)nc(C)n1 [SULFISOMIDINE]
> 30 µM: all assays above

CC(=O)Oc1c(C)c(C)c2c(c1C)CC[C@@](C)(CCC[C@H](C)CCC[C@H](C)CCCC(C)C)O2
> 30 µM: all assays above

CC(C)(C)NCC(O)COc1cccc2c1SCCC2 (stereo not given) [TERTATOLOL]
not listed: D(3) dopamine receptor
> 30 µM: all other assays above

OB1OCc2cc(F)ccc21 [TAVABOROLE]
> 30 µM: all assays above

COc1ccc2c(c1)N(C[C@H](C)CN(C)C)c1ccccc1S2 [LEVOMEPROMAZINE]
1.68 µM: [3]
13.5 µM: Mu-type opioid receptor
0.019 µM: D(3) dopamine receptor
11 µM: [5]
not listed: [1] | D(1A) dopamine receptor
> 30 µM: all other assays above

CC(C)(C)C(=O)C(Oc1ccc(Cl)cc1)n1ccnc1 (stereo not given) [CLIMBAZOLE]
25.6 µM: [1]
> 30 µM: all other assays above

CCN(CC)CCOC(=O)C(c1ccccc1)C1CCCCC1 (stereo not given) [DROFENINE]
25.3 µM: Mu-type opioid receptor
9.55 µM: [1]
13.7 µM: D(1A) dopamine receptor
0.217 µM: D(3) dopamine receptor
0.0342 µM: [3]
4.7 µM: [5]
> 30 µM: all other assays above

COc1ccc(C(=O)Nc2ccccc2CCC2CCCCN2C)cc1 (stereo not given) [ENCAINIDE]
26.9 µM: D(1A) dopamine receptor
not listed: [5]
> 30 µM: all other assays above

OC(CCN1CCCCC1)(c1ccccc1)c1ccccc1 [PRIDINOL]
0.129 µM: [3]
19.4 µM: Mu-type opioid receptor
8.8 µM: [5]
not listed: D(3) dopamine receptor
> 30 µM: all other assays above

CCN(CC)CCc1nc(-c2ccccc2)no1 [OXOLAMINE]
not listed: D(3) dopamine receptor
> 30 µM: all other assays above

CC(C)C[C@H]1C(=O)N2CCC[C@H]2[C@]2(O)O[C@](NC(=O)[C@@H]3C[C@@H]4c5cccc6[nH]cc(c56)C[C@H]4N(C)C3)(C(C)C)C(=O)N12 [DIHYDROERGOCRYPTINE]
0.202 µM: D(3) dopamine receptor
0.597 µM: D(1A) dopamine receptor
10.3 µM: Mu-type opioid receptor
not listed: [1]
> 30 µM: all other assays above

CC1=C(/C=C/C(C)=C/C=C/C(C)=C/C=C/C=C(C)/C=C/C=C(C)/C=C/C2=C(C)CCCC2(C)C)C(C)(C)CCC1 [BETA CAROTENE]
20.8 µM: D(3) dopamine receptor
not listed: [5]
> 30 µM: all other assays above

C=CCN1C[C@H](C(=O)N(CCCN(C)C)C(=O)NCC)C[C@@H]2c3cccc4[nH]cc(c34)C[C@H]21 [CABERGOLINE]
7.68 µM: [5]
0.003 µM: D(3) dopamine receptor
0.648 µM: D(1A) dopamine receptor
0.0032 µM: [4]
11.4 µM: Acetylcholinesterase
not listed: [1]
> 30 µM: all other assays above

N=C1CCCN1Cc1[nH]c(=O)[nH]c(=O)c1Cl
not listed: D(3) dopamine receptor
> 30 µM: all other assays above
